Read-outs that look alike come from different tables or passages of the source.
Experiments:
human ACSS2 = molecular target: T1, human ACSS2 (Homo sapiens, UniProt Q9NR19); test: ACSS2 enzyme assay (acetyl-CoA formation, LC-MS/MS); type: biochemical; conditions: cytosolic fraction of BT474 cells as ACSS2 source; 100 μM acetate, CoA and ATP; 2 h at 25° C.; read-out: Enzyme Activity (IC50 range)
T1 construct: The cytosolic fraction of BT474 cells was used as a source of the ACSS2 enzyme; endogenous in cells; host or cells: BT474 cells (cytosolic fraction)
T1 sequence (Q9NR19 whole entry): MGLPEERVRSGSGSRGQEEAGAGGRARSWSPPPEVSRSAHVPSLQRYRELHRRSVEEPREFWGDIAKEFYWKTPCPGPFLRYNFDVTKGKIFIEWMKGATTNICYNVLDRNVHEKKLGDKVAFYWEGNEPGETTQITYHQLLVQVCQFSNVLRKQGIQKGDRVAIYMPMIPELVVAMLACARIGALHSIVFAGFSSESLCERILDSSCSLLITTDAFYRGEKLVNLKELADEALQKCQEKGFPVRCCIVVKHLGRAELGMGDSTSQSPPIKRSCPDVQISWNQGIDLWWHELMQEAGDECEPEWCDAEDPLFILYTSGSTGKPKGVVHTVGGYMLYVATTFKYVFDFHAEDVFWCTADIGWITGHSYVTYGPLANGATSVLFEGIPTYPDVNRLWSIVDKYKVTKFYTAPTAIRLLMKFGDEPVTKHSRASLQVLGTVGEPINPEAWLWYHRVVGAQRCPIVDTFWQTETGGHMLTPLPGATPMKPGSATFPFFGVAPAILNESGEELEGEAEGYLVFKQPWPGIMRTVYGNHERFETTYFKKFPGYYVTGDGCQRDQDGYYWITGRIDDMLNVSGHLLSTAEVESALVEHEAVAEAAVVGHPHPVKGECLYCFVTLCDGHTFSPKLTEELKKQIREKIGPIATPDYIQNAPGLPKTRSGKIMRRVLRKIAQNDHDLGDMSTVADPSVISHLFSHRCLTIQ
Protocol: Novel compounds were screened in a human ACSS2 enzyme assay. Briefly, the ACSS2 enzyme reaction was monitored by directly measuring acetyl-CoA formation. The cytosolic fraction of BT474 cells was used as a source of the ACSS2 enzyme. A short protocol for this assay is provided below.
Preparation of Cytosolic Fraction from BT474 Cells
9×10^6 cells were harvested by trypsinization followed by centrifugation. The cell pellet was washed with PBS and dissolved in 500 μl STM buffer (50 mM Tris-HCl pH7.4, 250 mM sucrose, 5 mM MgCl2 & protease-phosphatase inhibitor cocktail) and homogenized at 600-1000 rpm for 1 min. on ice followed by incubation for 30 min. with intermittent vortexing. Supernatant was collected by centrifugation at 800 g for 15 min. at 4° C. Cytosolic fraction was prepared by further centrifugation of the supernatant at 12000 g for 15 min. at 4° C. Total protein content of the cytosolic fraction was estimated & diluted to 1 mg/ml concentration in storage buffer (25 mM Tris-HCl pH7.4, 1 mM MgCl2, 1 mM DTT & 10% glycerol) and stored at −80° C. for further use.
100 ng of cytosolic fraction in buffer composed of 25 mM Tris-HCl pH7.4 1 mM MgCl2, 1 mM DTT & 0.05% Tween20 was preincubated with desired concentrations of novel compounds for 5 min. maintaining 1% DMSO. Reaction was started with addition of substrate mix (100 μM of acetate, CoA and ATP) and incubated for 2 h at 25° C. with constant shaking at 500 rpm. Post incubation the reaction was terminated by addition of 10% TCA followed by 5 fold dilution in water. The reaction mixture was centrifuged at 800 g for 10 min. at RT and acetyl-CoA detected in supernatant by LC-MS/MS (QTrap5500 ABSCIEX).

[1] = system: [14C] acetate incorporation in macromolecules, BT474 cells; test: Cell based [14C] acetate incorporation assay; conditions: read-out: Cellular Activity (IC50 range)
Protocol: Cell Based [^14C] Acetate Incorporation Assay
In the cellular assay, ACSS2 inhibitors were screened against [^14C] acetate incorporation in macromolecules. 4×10^4 BT474 cells were plated in 96 well plates in growth media composed of DMEM & 10% FBS and incubated overnight in a 37° C., 5% CO2 incubator. The following day the cells were washed in HBSS and the assay was performed in 100 μl of HBSS. 50 μl of 4× compound in 4% DMSO was added to the cells and preincubated for 10 min. at 37° C. 50 μl of acetate solution (0.1 μCi ^14C acetate+10 μM ^12C acetate) was added to each well of the plate and incubated for 3 h in a 37° C., 5% CO2 incubator. Following incubation, cells were harvested with water on polyethylene imine (PEI) presoaked GF/C filtermat, air dried and radioactive count were recorded in Trilux micro beta Liquid Scintillation Counter (PerkinElmer).

[2] = Homo sapiens, BT-474, 3 h at 37° C.

Row | IC50 (human ACSS2) | IC50 [1, 2] | IC50 ([1]; 3 h at 37° C.) | Compound
1 | < 0.1 µM | < 0.1 µM |  | CCC(O)CNC(=O)Nc1ccc2nc(-c3ccccc3)c(-c3ccccc3)cc2c1 (stereo not drawn) [Example 1, 1-(2,3-diphenylquinolin-6-yl)-3-(2-hydroxybutyl) urea]
2 | < 0.1 µM | < 0.1 µM |  | CC[C@@H](O)CNC(=O)Nc1ccc2nc(-c3ccccc3)c(-c3ccccc3)cc2c1 [Example 2, (R)-1-(2,3-diphenylquinolin-6-yl)-3-(2-hydroxybutyl) urea]
3 | < 0.1 µM | < 0.1 µM |  | CCCCNC(=O)Nc1ccc2nc(-c3ccccc3)c(-c3ccccc3)cc2c1 [Example 3, 1-butyl-3-(2,3-diphenylquinolin-6-yl)urea]
4 | < 0.1 µM | < 0.1 µM |  | CCC(O)CNC(=O)Nc1ccc2nc(-c3ccccc3F)c(-c3ccccc3F)cc2c1 (stereo not drawn) [Example 4, 1-(2,3-bis(2-fluorophenyl)quinolin-6-yl)-3-(2-hydroxybutyl) urea]
5 | < 0.1 µM | < 0.1 µM |  | CCCCNC(=O)Nc1ccc2nc(-c3ccccc3)c(-c3ccccc3)cc2c1-c1cccnc1O [Example 5, 1-butyl-3-(5-(2-hydroxypyridin-3-yl)-2,3-diphenylquinolin-6-yl)urea]
6 | < 0.1 µM | < 0.1 µM |  | CCC(O)CNC(=O)Nc1ccc2nc(-c3ccccc3OC)c(-c3ccccc3OC)cc2c1 (stereo not drawn) [Example 6, 1-(2,3-bis(2-methoxyphenyl)quinolin-6-yl)-3-(2-hydroxybutyl) urea]
7 | < 0.1 µM | < 0.1 µM |  | CCC(O)CNC(=O)Nc1ccc2nc(-c3ccccc3)c(-c3ccccc3F)cc2c1 (stereo not drawn) [Example 7, 1-(3-(2-fluorophenyl)-2-phenylquinolin-6-yl)-3-(2-hydroxybutyl) urea]
8 | < 0.1 µM | < 0.1 µM |  | CCC(O)CNC(=O)Nc1ccc2nc(-c3ccccc3F)c(-c3ccccc3)cc2c1 (stereo not drawn) [Example 8, 1-(2-(2-fluorophenyl)-3-phenylquinolin-6-yl)-3-(2-hydroxybutyl) urea]
9 | > 10 µM | ≤ 10 µM |  | CCC(O)CNC(=O)Nc1ccc2nc(-c3ccnc(OC)c3)c(-c3ccnc(OC)c3)cc2c1 (stereo not drawn) [Example 9, 1-(2,3-bis(2-methoxypyridin-4-yl)quinolin-6-yl)-3-(2-hydroxybutyl) urea]
10 | < 0.1 µM | < 0.1 µM |  | CCC(O)CNC(=O)Nc1ccc2nc(-c3ccccc3)c(-c3ccccc3OC)cc2c1 (stereo not drawn) [Example 10, 1-(2-hydroxybutyl)-3-(3-(2-methoxyphenyl)-2-phenylquinolin-6-yl)urea]
11 | ≤ 1 µM | ≤ 10 µM |  | CCC(O)CNC(=O)Nc1ccc2nc(-c3ccc(OC)nc3)c(-c3ccc(OC)nc3)cc2c1 (stereo not drawn) [Example 11, 1-(2,3-bis(6-methoxypyridin-3-yl)quinolin-6-yl)-3-(2-hydroxybutyl) urea]
12 | < 0.1 µM | < 0.1 µM |  | CCC(O)CNC(=O)Nc1ccc2nc(-c3ccccc3OC)c(-c3ccccc3)cc2c1 (stereo not drawn) [Example 12, 1-(2-hydroxybutyl)-3-(2-(2-methoxyphenyl)-3-phenylquinolin-6-yl)urea]
13 | ≤ 1 µM | ≤ 1 µM |  | CCC(O)CNC(=O)Nc1ccc2nc(-c3cccnc3OC)c(-c3cccnc3OC)cc2c1 (stereo not drawn) [Example 13, 1-(2,3-bis(2-methoxypyridin-3-yl)quinolin-6-yl)-3-(2-hydroxybutyl) urea]
14 | < 0.1 µM | < 0.1 µM |  | CCCCNC(=O)Nc1ccc2nc(-c3ccccc3F)c(-c3ccccc3F)cc2c1 [Example 14, 1-(2,3-bis(2-fluorophenyl)quinolin-6-yl)-3-butylurea]
15 | < 0.1 µM | < 0.1 µM |  | CC[C@@H](O)CNC(=O)Nc1ccc2nc(-c3ccccc3)c(-c3ccccc3F)cc2c1 [Example 15, (R)-1-(3-(2-Fluorophenyl)-2-phenylquinolin-6-yl)-3-(2-hydroxybutyl)urea]
16 | < 0.1 µM | < 0.1 µM |  | CCCCNC(=O)Nc1ccc2nc(-c3ccccc3)c(-c3ccccc3F)cc2c1 [Example 16, 1-butyl-3-(3-(2-fluorophenyl)-2-phenylquinolin-6-yl)urea]

Row | IC50 (human ACSS2) | IC50 [1, 2] | IC50 ([1]; 3 h at 37° C.) | Compound
17 | < 0.1 µM | < 0.1 µM |  | CCC(O)CNC(=O)Nc1ccc2nc(-c3ccc(F)cc3)c(-c3ccc(F)cc3)cc2c1 (stereo not drawn) [Example 17, 1-(2,3-bis(4-fluorophenyl)quinolin-6-yl)-3-(2-hydroxybutyl) urea]
18 | < 0.1 µM | < 0.1 µM |  | CCC(O)CNC(=O)Nc1ccc2nc(-c3ccccc3OC)c(-c3ccccc3F)cc2c1 (stereo not drawn) [Example 18, 1-(3-(2-fluorophenyl)-2-(2-methoxyphenyl)quinolin-6-yl)-3-(2-hydroxybutyl) urea]
19 | < 0.1 µM | ≤ 10 µM |  | CCC(O)CNC(=O)Nc1ccc2nc(-c3cccnc3)c(-c3cccnc3)cc2c1 (stereo not drawn) [Example 19, 1-(2,3-di(pyridin-3-yl)quinolin-6-yl)-3-(2-hydroxybutyl) urea]
20 | < 0.1 µM | < 0.1 µM |  | CC[C@@H](O)CNC(=O)Nc1ccc2nc(-c3ccccc3F)c(-c3ccccc3F)cc2c1 [Example 20, (R)-1-(2,3-Bis(2-fluorophenyl)quinolin-6-yl)-3-(2-hydroxybutyl)urea]
21 | ≤ 10 µM | ≤ 10 µM |  | CCC(O)CNC(=O)Nc1ccc2nc(-c3cccc(C(C)=O)c3)c(-c3cccc(C(C)=O)c3)cc2c1 (stereo not drawn) [Example 21, 1-(2,3-bis(3-acetylphenyl)quinolin-6-yl)-3-(2-hydroxybutyl) urea]
22 | ≤ 10 µM | > 10 µM |  | CCC(O)CNC(=O)Nc1ccc2nc(-c3cn[nH]c3)c(-c3cn[nH]c3)cc2c1 (stereo not drawn) [Example 22, 1-(2,3-di(1H-pyrazol-4-yl)quinolin-6-yl)-3-(2-hydroxybutyl) urea]
23 | < 0.1 µM | < 0.1 µM |  | CCCCNC(=O)Nc1ccc2nc(-c3ccccc3)c(-c3ccccc3OC)cc2c1 [Example 23, 1-butyl-3-(3-(2-methoxyphenyl)-2-phenylquinolin-6-yl)urea]
24 | ≤ 1 µM | ≤ 10 µM |  | CCC(O)CNC(=O)Nc1ccc2nc(-c3ccncc3)c(-c3ccncc3)cc2c1 (stereo not drawn) [Example 24, 1-(2,3-di(pyridin-4-yl)quinolin-6-yl)-3-(2-hydroxybutyl) urea]
25 | ≤ 1 µM | ≤ 1 µM |  | CCC(O)CNC(=O)Nc1ccc2nc(-c3cccc(F)c3)c(-c3cccc(F)c3)cc2c1 (stereo not drawn) [Example 25, 1-(2,3-bis(3-fluorophenyl)quinolin-6-yl)-3-(2-hydroxybutyl) urea]
26 | < 0.1 µM | < 0.1 µM |  | CCC(O)CNC(=O)Nc1ccc2nc(-c3ccccc3F)c(-c3ccccc3OC)cc2c1 (stereo not drawn) [Example 26, 1-(2-(2-fluorophenyl)-3-(2-methoxyphenyl)quinolin-6-yl)-3-(2-hydroxybutyl) urea]
27 | ≤ 1 µM | ≤ 10 µM |  | CCC(O)CNC(=O)Nc1ccc2nc(-c3ccc(=O)[nH]c3)c(-c3ccc(=O)[nH]c3)cc2c1 (stereo not drawn) [Example 27, 1-(2,3-bis(6-oxo-1,6-dihydropyridin-3-yl)quinolin-6-yl)-3-(2-hydroxybutyl) urea]
28 | < 0.1 µM | < 0.1 µM |  | CC[C@H](O)CNC(=O)Nc1ccc2nc(-c3ccccc3F)c(-c3ccccc3F)cc2c1 [Example 28, (S)-1-(2,3-bis(2-fluorophenyl)quinolin-6-yl)-3-(2-hydroxybutyl) urea]
29 | > 10 µM | > 10 µM |  | CCC(O)CNC(=O)Nc1ccc2nc(-c3ccnc(O)c3)c(-c3ccnc(O)c3)cc2c1 (stereo not drawn) [Example 29, 1-(2,3-bis(2-hydroxypyridin-4-yl)quinolin-6-yl)-3-(2-hydroxybutyl) urea]
30 | < 0.1 µM | < 0.1 µM |  | CC[C@H](O)CNC(=O)Nc1ccc2nc(-c3ccccc3)c(-c3ccccc3)cc2c1 [Example 30, (S)-1-(2,3-diphenylquinolin-6-yl)-3-(2-hydroxybutyl) urea]
31 | < 0.1 µM | < 0.1 µM |  | CCC(O)CNC(=O)Nc1ccc2nc(-c3cccnc3)c(-c3ccccc3F)cc2c1 (stereo not drawn) [Example 31, 1-(3-(2-fluorophenyl)-2-(pyridin-3-yl)quinolin-6-yl)-3-(2-hydroxybutyl) urea]
32 |  |  | < 0.1 µM | CC[C@H](O)CNC(=O)Nc1ccc2nc(-c3ccccc3)c(-c3ccccc3)cc2c1 [Example 68, (S)-1-(2,3-diphenylquino-lin-6-yl)-3-(2-hydroxybutyl) urea]

From patent US20220298115A1, “SMALL MOLECULE INHIBITORS OF ACETYL COENZYME A SYNTHETASE SHORT CHAIN 2 (ACSS2)” (Curadev Pharma Pvt. Ltd., priority 2019, published 2022)
